# Patent US6369212B1, “Cytochrome P450 gene highly expressed in the incompatible interaction” (Korea Kumbo Petrochemical Co., Ltd., priority 2000, dated 2002)
# Test system: PepCYP mRNA
# Assay: RNA gel blot analysis of PepCYP expression in pepper fruits drop-applied with ABA or JA
# Set-up: species or system pepper (Capsicum annuum)
# Experimental: Both ripe-red and unripe-mature-green fruits of pepper cv Nokkwang were grown and harvested under greenhouse conditions. For wound treatments, five healthy ripe and unripe fruits were deeply scratched with a knife and incubated at 100% relative humidity at 27° C. in the dark. Ten μl of ABA at 4 and 40 μM, or JA at 4 and 40 μM were drop-applied to both ripe and unripe sets of five fruits, respectively. After incubation under the conditions described above, the fruits were excised to 1 cm^2 at the drop-application site for the fungus, ABA or JA, and at the wounding site. The samples were then frozen in liquid nitrogen. Leaf, root, and stem samples were harvested from 3-week-old plants and handled as described above for fungal inoculation and wounding.
# Total RNA (10 μg/lane) from each plant tissue used in this study was separated on 1.2% denaturing agarose gels in the presence of formaldehyde. RNA gel-blotting, hybridization and washing were conducted as described by the manufacturer of the positively charged nylon membrane employed (Hybond N^+; Amersham Pharmacia Biotech). Radiolabeled probes were prepared with [α-^32P]dCTP (Amersham Pharmacia Biotech) using a random primer-labeling kit (Boehringer, Mannheim, Germany).
# Jasmonic acid (JA) is a plant hormone with roles in mechanical wounding responses (Creelman et al. 1992; Creelman and Mullet 1997). ABA is hypothesized to be a key component in wound-signaling cascade leading to the activation of a defense gene (Pena-Cortés et al. 1996; Wasternack and Partheir 1997). Thus, we further examined whether the wound-inducible PepCYP expression is inducible by ABA or JA treatments. RNA gel blot analysis was performed with total RNAs prepared from the application sites of both ripe and unripe fruits drop-applied with ABA or JA for 24 h.
SMILES,"expression of PepCYP (both ripe and unripe fruits, 4 and 40 μM drop-applied, 24 h)","accumulation of PepCYP mRNA (ripe fruit, 40 μM drop-applied, 24 h)","induction of PepCYP expression (unripe fruit, 100, 400 and 1000 μM (data not shown))"
"CC1=CC(=O)CC(C)(C)[C@@]1(O)/C=C/C(C)=C\C(=O)O [ABA, abscisic acid]",did not affect,,
"CC/C=C\C[C@H]1C(=O)CC[C@@H]1CC(=O)O [JA, Jasmonic acid]",,highly accumulated,No induction
